Data published in PMC7673538 (PLoS Biology, 2020).
Where two headings read alike, the source gives them in different places.

Columns and labels:
CV-B3 [1] = experiment: microbe, parasite or virus in culture; assay type: cell-based, coxsackievirus B3; settings: for EC50: Enterovirus B
in vitro [2] = settings: human
EV-A71 = experiment: microbe, parasite or virus in culture; assay type: cell-based, enterovirus A71; settings: Enterovirus A
PV-1 = experiment: microbe, parasite or virus in culture; assay type: cell-based, poliovirus 1; settings: Enterovirus C, HeLa R19, read-out: EC50 PV-1
CV-A24 = experiment: microbe, parasite or virus in culture; assay type: cell-based, coxsackievirus A24; settings: Enterovirus C, CVA24, HeLa R19, read-out: EC50 CV-A24
EV-D68 = experiment: microbe, parasite or virus in culture; assay type: cell-based, enterovirus D68; settings: Enterovirus D
HRV-A2 = experiment: microbe, parasite or virus in culture; assay type: cell-based, human rhinovirus; settings: Human rhinovirus sp., HRVA2, HeLa R19, read-out: EC50 HRV-A2
HRV-B14 = experiment: microbe, parasite or virus in culture; assay type: cell-based, human rhinovirus; settings: Human rhinovirus sp.
CV-B3 [3] = experiment: microbe, parasite or virus in culture; assay type: cell-based, coxsackievirus B3; settings: Enterovirus B
CV-B3 [4] = experiment: microbe, parasite or virus in culture; assay type: cell-based, coxsackievirus B3; settings: Enterovirus B, CVB3, BGM
in vitro [5] = settings: human; remark: listed apart in the source
in vitro [6] = settings: monkey
human DAT = target: T1, human DAT (Homo sapiens, UniProt Q01959); assay type: cell-based
T1 construct: expressed in transfected cells; host or cells: HEK293 (gift of Dr. Hoener, F. Hoffmann-La Roche)
T1 sequence (Q01959 whole entry): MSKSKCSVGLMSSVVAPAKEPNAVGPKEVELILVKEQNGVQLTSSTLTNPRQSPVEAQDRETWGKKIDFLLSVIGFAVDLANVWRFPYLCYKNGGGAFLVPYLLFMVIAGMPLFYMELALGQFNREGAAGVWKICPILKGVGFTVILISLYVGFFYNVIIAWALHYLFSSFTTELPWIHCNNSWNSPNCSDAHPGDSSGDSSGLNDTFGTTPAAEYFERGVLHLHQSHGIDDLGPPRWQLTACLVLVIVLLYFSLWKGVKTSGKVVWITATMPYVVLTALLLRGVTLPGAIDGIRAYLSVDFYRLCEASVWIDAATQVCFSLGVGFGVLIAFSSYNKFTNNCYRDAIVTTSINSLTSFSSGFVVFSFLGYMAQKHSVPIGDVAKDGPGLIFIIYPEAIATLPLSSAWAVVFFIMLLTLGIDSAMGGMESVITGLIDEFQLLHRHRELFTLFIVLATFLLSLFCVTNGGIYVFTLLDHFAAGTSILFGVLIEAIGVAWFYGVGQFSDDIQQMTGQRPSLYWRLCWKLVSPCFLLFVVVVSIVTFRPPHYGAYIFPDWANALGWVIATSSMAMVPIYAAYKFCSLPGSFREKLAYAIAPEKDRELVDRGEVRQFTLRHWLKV

[7] = CVB3, HeLa R19, read-out: CV-B3 EC50 Average
[8] = CVB3, HeLa R19, read-out: CV-B3 Exp 1 EC50
[9] = CVB3, HeLa R19, read-out: CV-B3 Exp2 EC50
[10] = EVA71, HeLa R19, read-out: EC50 EV-A71
[11] = EVA71, HeLa R19, read-out: EC50 Exp1
[12] = EVA71, HeLa R19, read-out: EC50 Exp2
[13] = CVB3, HeLa R19, read-out: EC50 HelaR19 Average
[14] = CVB3, HeLa R19, read-out: Exp 1 EC50 HelaR19
[15] = CVB3, HeLa R19, read-out: Exp 2 EC50 HelaR19
[16] = EVD68, HeLa R19, read-out: EC50 Exp1
[17] = EVD68, HeLa R19, read-out: EC50 Exp2
[18] = HRVB14, HeLa R19, read-out: EC50 HRV-B14
[19] = CVB3, HAP1, read-out: EC50 Hap1 Average
[20] = CVB3, HAP1, read-out: Exp 1 EC50 Hap1
[21] = CVB3, HAP1, read-out: Exp 2 EC50 Hap1

CNCC(=O)N(Cc1ccc(F)cc1)c1ccc(OC)cc1 [Compound 6, N-(4-fluorobenzyl)-N-(4-methoxyphenyl)-2-(methylamino)acetamide]
antiviral activity against CV-B3 (in words) (CV-B3 [1]): loss of antiviral activity | EC50 (CV-B3 [1]; CVB3, HeLa R19): > 30 µM | EC50 (CV-B3 [1]; [7]): > 30 µM | EC50 (CV-B3 [1]; [8]): > 30 µM | EC50 (CV-B3 [1]; [9]): > 30 µM | CC50 (in vitro [2]; CC50): > 30 µM | CC50 (in vitro [2]; CC50 Average): > 30 µM | CC50 (in vitro [2]; Exp 1 CC50): > 30 µM | CC50 (in vitro [2]; Exp2 CC50): > 30 µM

O=C(c1ccc[nH]1)N(Cc1ccc(C(F)(F)F)cc1)c1ccccc1 [Compound 22, N-Phenyl-N-(4-(trifluoromethyl)benzyl)-1H-pyrrole-2-carboxamide]
EC50 (EV-A71; [10]): 1.27 ± 0.49 µM | EC50 (EV-A71; [11]): 0.78 µM | EC50 (EV-A71; [12]): 1.76 µM | effect of the substitution on antiviral activity against CV-B3 (in words) (CV-B3 [1]): little, if any, effect on antiviral activity | EC50 (CV-B3 [1]; [7]): 1.5 µM | EC50 (CV-B3 [1]; [8]): 1.42 µM | EC50 (CV-B3 [1]; [9]): 1.58 µM | EC50 (CV-B3 [1]; [13]): 2.6 µM | EC50 (CV-B3 [1]; [14]): 2.69 µM | EC50 (CV-B3 [1]; [15]): 2.51 µM | EC50 (PV-1): > 30 µM | EC50 (CV-A24): > 30 µM | EC50 (EV-D68; EVD68, HeLa R19, read-out: EC50 EV-D68): 12.4 ± 0.81 µM | EC50 (EV-D68; [16]): 11.6 µM | EC50 (EV-D68; [17]): 13.2 µM | EC50 (HRV-A2): > 30 µM | EC50 (HRV-B14; [18]): > 30 µM | EC50 (CV-B3 [3]; [19]): 2.69 µM | EC50 (CV-B3 [3]; [20]): 2.5 µM | EC50 (CV-B3 [3]; [21]): 2.87 µM | EC50 (CV-B3 [4]; read-out: EC50 BGM Average): 2.28 µM | EC50 (CV-B3 [4]; read-out: Exp 1 EC50 BGM): 2.55 µM | EC50 (CV-B3 [4]; read-out: Exp 2 EC50 BGM): 2.01 µM | cytotoxicity (in words) (HeLa R19 cells): did not show any cytotoxicity | CC50 (in vitro [2]; CC50 Average): > 30 µM | CC50 (in vitro [2]; CC50 HelaR19 Average): > 100 µM | CC50 (in vitro [2]; Exp 1 CC50): > 30 µM | CC50 (in vitro [2]; Exp 1 CC50 HelaR19): > 100 µM | CC50 (in vitro [2]; Exp2 CC50): > 30 µM | CC50 (in vitro [2]; Exp 2 CC50 HelaR19): > 100 µM | CC50 (in vitro [5]; CC50): > 100 µM | CC50 (in vitro [5]; CC50 Hap1 Average): > 100 µM | CC50 (in vitro [5]; Exp 1 CC50 Hap1): > 100 µM | CC50 (in vitro [5]; Exp 2 CC50 Hap1): > 100 µM | CC50 (in vitro [6]; CC50): > 100 µM | CC50 (in vitro [6]; CC50 BGM Average): > 100 µM | CC50 (in vitro [6]; Exp 1 CC50 BGM): > 100 µM | CC50 (in vitro [6]; Exp 2 CC50 BGM): > 100 µM

O=C(c1ccco1)N(Cc1ccc(S(F)(F)(F)(F)F)cc1)c1ccccc1 [Compound 19f, N-(4-(Pentafluorosulfaneyl)benzyl)-N-phenylfuran-2-carboxamide]
EC50 (EV-A71; [10]): 4.37 ± 0.5 µM | EC50 (EV-A71; [11]): 3.87 µM | EC50 (EV-A71; [12]): 4.87 µM | effect of the substitution on antiviral activity against CV-B3 (in words) (CV-B3 [1]): only marginally affected antiviral activity | EC50 (CV-B3 [1]; [7]): 3.1 µM | EC50 (CV-B3 [1]; [8]): 3.52 µM | EC50 (CV-B3 [1]; [9]): 2.68 µM | EC50 (CV-B3 [1]; [13]): 3.28 µM | EC50 (CV-B3 [1]; [14]): 3.45 µM | EC50 (CV-B3 [1]; [15]): 3.11 µM | EC50 (PV-1): > 30 µM | EC50 (CV-A24): > 30 µM | EC50 (EV-D68; [16]): 13.6 µM | EC50 (EV-D68; [17]): 15.3 µM | EC50 (HRV-A2): > 30 µM | EC50 (HRV-B14; HRVB14, HeLa R19, read-out: EC50 Exp1): 4.68 µM | EC50 (HRV-B14; HRVB14, HeLa R19, read-out: EC50 Exp2): 5.76 µM | EC50 (HRV-B14; [18]): 5.22 ± 0.54 µM | EC50 (CV-B3 [3]; [19]): 2.1 µM | EC50 (CV-B3 [3]; [20]): 2.3 µM | EC50 (CV-B3 [3]; [21]): 1.9 µM | EC50 (CV-B3 [4]; read-out: EC50 BGM Average): 2.6 µM | EC50 (CV-B3 [4]; read-out: Exp 1 EC50 BGM): 2.22 µM | EC50 (CV-B3 [4]; read-out: Exp 2 EC50 BGM): 2.98 µM | CC50 (HeLa R19 cells; human): 32.9 ± 2 µM | cytotoxicity (in words) (HeLa R19 cells; human, monkey): cytotoxicity in a similar range as the parental compound 1 | CC50 (in vitro [2]; CC50 Average): > 30 µM | CC50 (in vitro [2]; CC50 HelaR19 Average): 32 µM | CC50 (in vitro [2]; Exp 1 CC50): > 30 µM | CC50 (in vitro [2]; Exp 1 CC50 HelaR19): 30 µM | CC50 (in vitro [2]; Exp2 CC50): > 30 µM | CC50 (in vitro [2]; Exp 2 CC50 HelaR19): 34 µM | CC50 (in vitro [5]; CC50 Hap1 Average): 62.5 µM | CC50 (in vitro [5]; Exp 1 CC50 Hap1): 61 µM | CC50 (in vitro [5]; Exp 2 CC50 Hap1): 64.1 µM | CC50 (in vitro [6]; CC50): 31.9 ± 1.41 µM | CC50 (in vitro [6]; CC50 BGM Average): 31.9 µM | CC50 (in vitro [6]; Exp 1 CC50 BGM): 30.5 µM | CC50 (in vitro [6]; Exp 2 CC50 BGM): 33.3 µM

COc1ccc(N(Cc2ccc(F)cc2)S(=O)(=O)c2ccco2)cc1 [Compound 5b, N-(4-fluorobenzyl)-N-(4-methoxyphenyl)furan-2-sulfonamide]
antiviral activity against CV-B3 (in words) (CV-B3 [1]): loss of antiviral activity | EC50 (CV-B3 [1]; CVB3, HeLa R19): > 30 µM | EC50 (CV-B3 [1]; [7]): > 30 µM | EC50 (CV-B3 [1]; [8]): > 30 µM | EC50 (CV-B3 [1]; [9]): > 30 µM | CC50 (in vitro [2]; CC50): > 30 µM | CC50 (in vitro [2]; CC50 Average): > 30 µM | CC50 (in vitro [2]; Exp 1 CC50): > 30 µM | CC50 (in vitro [2]; Exp2 CC50): > 30 µM

COc1ccc(N(Cc2ccc(F)cc2)C(C)=O)cc1 [Compound 5a, N-(4-fluorobenzyl)-N-(4-methoxyphenyl)acetamide]
antiviral activity against CV-B3 (in words) (CV-B3 [1]): loss of antiviral activity | EC50 (CV-B3 [1]; CVB3, HeLa R19): > 30 µM | EC50 (CV-B3 [1]; [7]): > 30 µM | EC50 (CV-B3 [1]; [8]): > 30 µM | EC50 (CV-B3 [1]; [9]): > 30 µM | CC50 (in vitro [2]; CC50): > 30 µM | CC50 (in vitro [2]; CC50 Average): > 30 µM | CC50 (in vitro [2]; Exp 1 CC50): > 30 µM | CC50 (in vitro [2]; Exp2 CC50): > 30 µM

COc1ccc(N(Cc2ccco2)C(=O)c2ccc(F)cc2)cc1 [Compound 15, 4-Fluoro-N-(furan-2-ylmethyl)-N-(4-methoxyphenyl)benzamide]
antiviral activity against CV-B3 (in words) (CV-B3 [1]): abolished antiviral acitivty | EC50 (CV-B3 [1]; CVB3, HeLa R19): > 30 µM | EC50 (CV-B3 [1]; [7]): > 30 µM | EC50 (CV-B3 [1]; [8]): > 30 µM | EC50 (CV-B3 [1]; [9]): > 30 µM | CC50 (in vitro [2]; CC50): > 30 µM | CC50 (in vitro [2]; CC50 Average): > 30 µM | CC50 (in vitro [2]; Exp 1 CC50): > 30 µM | CC50 (in vitro [2]; Exp2 CC50): > 30 µM

COc1ccc(N(Cc2ccc(F)cc2)Cc2ccco2)cc1 [Compound 5g, N-(4-fluorobenzyl)-N-(furan-2-ylmethyl)-4-methoxyaniline]
antiviral activity against CV-B3 (in words) (CV-B3 [1]): loss of antiviral activity | EC50 (CV-B3 [1]; CVB3, HeLa R19): > 30 µM | EC50 (CV-B3 [1]; [7]): > 30 µM | EC50 (CV-B3 [1]; [8]): > 30 µM | EC50 (CV-B3 [1]; [9]): > 30 µM | CC50 (in vitro [2]; CC50): > 30 µM | CC50 (in vitro [2]; CC50 Average): > 30 µM | CC50 (in vitro [2]; Exp 1 CC50): > 30 µM | CC50 (in vitro [2]; Exp2 CC50): > 30 µM

COc1ccc(N(Cc2ccc(F)cc2)C(=O)C2CCCO2)cc1 (stereo not drawn) [Compound 5f, N-(4-Fluorobenzyl)-N-(4-methoxyphenyl)tetrahydrofuran-2-carboxamide]
antiviral activity against CV-B3 (in words) (CV-B3 [1]): loss of antiviral activity | EC50 (CV-B3 [1]; CVB3, HeLa R19): > 30 µM | EC50 (CV-B3 [1]; [7]): > 30 µM | EC50 (CV-B3 [1]; [8]): > 30 µM | EC50 (CV-B3 [1]; [9]): > 30 µM | CC50 (in vitro [2]; CC50): > 30 µM | CC50 (in vitro [2]; CC50 Average): > 30 µM | CC50 (in vitro [2]; Exp 1 CC50): > 30 µM | CC50 (in vitro [2]; Exp2 CC50): > 30 µM

CNCCC(Oc1ccc(C(F)(F)F)cc1)c1ccccc1 (stereo not drawn) [fluoxetine, reference compound]
inhibition of DAT function (in words) (human DAT): promiscuously inhibited also the DAT and NET activity at 100 μM
